Results reported in ChEMBL document CHEMBL3044568, “Synthesis, analgesic, anti-inflammatory, and in vitro antimicrobial activities of some novel quinazolin-4(3H)-one derivatives” (Med Chem Res, 2013).
≈ marks a conversion by molar mass, not a printed value.

Legend:
Rattus norvegicus [1] = assay: Ulcerogenecity in Rattus norvegicus Wistar albino (rat) stomach assessed as ulcer index administered 200 mg/kg, ip qd for 3 days measured on day 4 (reference value: 0.13 +/- 0.05 no unit); assay type: ADME, organism-based; design: dose 200 mg/kg, route intraperitoneal; settings: in vivo, 72 h
Rattus norvegicus [2] = assay: Anti-inflammatory activity in Rattus norvegicus Wistar (rat) assessed as protection against carrageenan-induced paw edema at 20 mg/kg, po measured at 3 hr by plethysmographic analysis (reference value: 4 +/- 0.75%); assay type: functional
Rattus norvegicus [3] = assay: Anti-inflammatory activity in Rattus norvegicus Wistar (rat) assessed as protection against carrageenan-induced paw edema at 20 mg/kg, po measured at 2 hr by plethysmographic analysis (reference value: 5 +/- 0.41%); assay type: functional
Mus musculus [4] = assay: Analgesic activity in Mus musculus […] albino (mouse) at 20 mg/kg, po measured at 30 min by tail flick test (reference value: 4 +/- 0.72%)
Mus musculus [5] = assay: Analgesic activity in Mus musculus […] albino (mouse) at 10 mg/kg, po measured at 1 hr by tail flick test (reference value: 5 +/- 0.49%)
Mus musculus [6] = assay: Analgesic activity in Mus musculus […] albino (mouse) at 10 mg/kg, po measured at 3 hr by tail flick test (reference value: 3 +/- 0.41%)
Rattus norvegicus [7] = assay: Anti-inflammatory activity in Rattus norvegicus Wistar (rat) assessed as protection against carrageenan-induced paw edema at 20 mg/kg, po measured at 30 min by plethysmographic analysis (reference value: 4 +/- 0.28%); assay type: functional
Staphylococcus aureus = assay: Antibacterial activity against Staphylococcus aureus ATCC 9144 assessed as growth inhibition after 24 hr by agar streak dilution method; assay type: functional; settings: ATCC 9144, 24 h
Aspergillus niger = assay: Antifungal activity against Aspergillus niger ATCC 9029 assessed as growth inhibition after 48 hr by agar streak dilution method; assay type: functional; settings: ATCC 9029, 48 h
Rattus norvegicus [8] = assay: Anti-inflammatory activity in Rattus norvegicus Wistar (rat) assessed as protection against carrageenan-induced paw edema at 10 mg/kg, po measured at 2 hr by plethysmographic analysis (reference value: 5 +/- 0.41%); assay type: functional
Micrococcus luteus = assay: Antibacterial activity against Micrococcus luteus ATCC 4698 assessed as growth inhibition after 24 hr by agar streak dilution method; assay type: functional; settings: ATCC 4698, 24 h
[9] = test system: Staphylococcus epidermidis; assay: Antibacterial activity against Staphylococcus epidermidis ATCC 155 assessed as growth inhibition after 24 hr by agar streak dilution method; assay type: functional; settings: ATCC 155, 24 h
Rattus norvegicus [10] = assay: Ulcerogenecity in Rattus norvegicus Wistar albino (rat) stomach assessed as ulcer index administered 20 mg/kg, ip qd for 3 days measured on day 4 (reference value: 0.13 +/- 0.05 no unit); assay type: ADME, organism-based; design: dose 20 mg/kg, route intraperitoneal; settings: in vivo, 72 h
Pseudomonas aeruginosa = assay: Antibacterial activity against Pseudomonas aeruginosa […] assessed as growth inhibition after 24 hr by agar streak dilution method; assay type: functional
Rattus norvegicus [11] = assay: Anti-inflammatory activity in Rattus norvegicus Wistar (rat) assessed as protection against carrageenan-induced paw edema at 10 mg/kg, po measured at 1 hr by plethysmographic analysis (reference value: 6 +/- 0.63%); assay type: functional
Rattus norvegicus [12] = assay: Ulcerogenecity in Rattus norvegicus Wistar albino (rat) stomach assessed as ulcer index administered 20 mg/kg, ip qd for 3 days measured on day 4 relative to aspirin; assay type: ADME, organism-based; design: dose 20 mg/kg, route intraperitoneal; settings: in vivo, 72 h
Rattus norvegicus [13] = assay: Anti-inflammatory activity in Rattus norvegicus Wistar (rat) assessed as protection against carrageenan-induced paw edema at 10 mg/kg, po measured at 3 hr by plethysmographic analysis (reference value: 4 +/- 0.75%); assay type: functional
Mus musculus [14] = assay: Analgesic activity in Mus musculus […] albino (mouse) at 10 mg/kg, po measured at 2 hr by tail flick test (reference value: 6 +/- 0.84%)
Aspergillus fumigatus = assay: Antifungal activity against Aspergillus fumigatus ATCC 46645 assessed as growth inhibition after 48 hr by agar streak dilution method; assay type: functional; settings: ATCC 46645, 48 h
Mus musculus [15] = assay: Analgesic activity in Mus musculus […] albino (mouse) at 20 mg/kg, po measured at 2 hr by tail flick test (reference value: 6 +/- 0.84%)
Mus musculus [16] = assay: Analgesic activity in Mus musculus […] albino (mouse) at 20 mg/kg, po measured at 1 hr by tail flick test (reference value: 5 +/- 0.49%)
Escherichia coli = assay: Antibacterial activity against Escherichia coli ATCC 25922 assessed as growth inhibition after 24 hr by agar streak dilution method; assay type: functional; settings: ATCC 25922, 24 h
Mus musculus [17] = assay: Analgesic activity in Mus musculus […] albino (mouse) at 10 mg/kg, po measured at 30 min by tail flick test (reference value: 4 +/- 0.72%)
Rattus norvegicus [18] = assay: Anti-inflammatory activity in Rattus norvegicus Wistar (rat) assessed as protection against carrageenan-induced paw edema at 20 mg/kg, po measured at 1 hr by plethysmographic analysis (reference value: 6 +/- 0.63%); assay type: functional
Bacillus cereus = assay: Antibacterial activity against Bacillus cereus ATCC 11778 assessed as growth inhibition after 24 hr by agar streak dilution method; assay type: functional; settings: ATCC 11778, 24 h
Klebsiella pneumoniae = assay: Antibacterial activity against Klebsiella pneumoniae ATCC 11298 assessed as growth inhibition after 24 hr by agar streak dilution method; assay type: functional; settings: ATCC 11298, 24 h
Rattus norvegicus [19] = assay: Ulcerogenecity in Rattus norvegicus Wistar albino (rat) stomach assessed as ulcer index administered 20 mg/kg, ip qd for 3 days measured on day 4 relative to diclofenac; assay type: ADME, organism-based; design: dose 20 mg/kg, route intraperitoneal; settings: in vivo, 72 h
Mus musculus [20] = assay: Analgesic activity in Mus musculus […] albino (mouse) at 20 mg/kg, po measured at 3 hr by tail flick test (reference value: 3 +/- 0.41%)
Rattus norvegicus [21] = assay: Anti-inflammatory activity in Rattus norvegicus Wistar (rat) assessed as protection against carrageenan-induced paw edema at 10 mg/kg, po measured at 30 min by plethysmographic analysis (reference value: 4 +/- 0.28%); assay type: functional

| SMILES | Activity (Rattus norvegicus [2]) [%] | Activity (Rattus norvegicus [3]) [%] | Activity (Mus musculus [4]) [%] | Activity (Mus musculus [5]) [%] | Activity (Mus musculus [6]) [%] | Activity (Rattus norvegicus [7]) [%] | MIC (Staphylococcus aureus) [µg/mL] | MIC (Aspergillus niger) [µg/mL] | Activity (Rattus norvegicus [8]) [%] | MIC (Micrococcus luteus) [µg/mL] | MIC [9] [µg/mL] | UI (Rattus norvegicus [10]) [no unit] | MIC (Pseudomonas aeruginosa) [µg/mL] | Activity (Rattus norvegicus [11]) [%] | UI (Rattus norvegicus [12]) [%] | Activity (Rattus norvegicus [13]) [%] | Activity (Mus musculus [14]) [%] | MIC (Aspergillus fumigatus) [µg/mL] | Activity (Mus musculus [15]) [%] | Activity (Mus musculus [16]) [%] | also measured |
| --- | --- | --- | --- | --- | --- | --- | --- | --- | --- | --- | --- | --- | --- | --- | --- | --- | --- | --- | --- | --- | --- |
| CC(=O)Oc1ccccc1C(=O)O [ASPIRIN] | – | – | – | – | – | – | – | – | – | – | – | – | – | – | – | – | – | – | – | – | UI (Rattus norvegicus [1]): 1.79% |
| Cc1nc2ccccc2c(=O)n1-c1ccc(NC(=O)CN/N=C/c2ccc(O)cc2)cc1 | 29 | 43 | 36 | 30 | 20 | 30 | 125 (≈ 292 µM) | 125 (≈ 292 µM) | 28 | 62.5 (≈ 146 µM) | 125 (≈ 292 µM) | 0.82 | 125 (≈ 292 µM) | 25 | 31 | 22 | 34 | 62.5 (≈ 146 µM) | 47 | 43 | MIC (Escherichia coli): 125 µg/mL (≈ 292 µM); Activity (Mus musculus [17]): 23%; Activity (Rattus norvegicus [18]): 39%; MIC (Bacillus cereus): 125 µg/mL (≈ 292 µM); MIC (Klebsiella pneumoniae): 125 µg/mL (≈ 292 µM); UI (Rattus norvegicus [19]): 34%; Activity (Mus musculus [20]): 26%; Activity (Rattus norvegicus [21]): 21% |
| Cc1ccc(/C=N\NCC(=O)Nc2ccc(-n3c(C)nc4ccccc4c3=O)cc2)o1 | 30 | 39 | 29 | 24 | 19 | 31 | 62.5 (≈ 150 µM) | 125 (≈ 301 µM) | 30 | 125 (≈ 301 µM) | 62.5 (≈ 150 µM) | 0.77 | 31.2 (≈ 75.2 µM) | 25 | 31 | 23 | 27 | 62.5 (≈ 150 µM) | 38 | 33 | MIC (Escherichia coli): 62.5 µg/mL (≈ 150 µM); Activity (Mus musculus [17]): 17%; Activity (Rattus norvegicus [18]): 35%; MIC (Bacillus cereus): 62.5 µg/mL (≈ 150 µM); MIC (Klebsiella pneumoniae): 62.5 µg/mL (≈ 150 µM); UI (Rattus norvegicus [19]): 34%; Activity (Mus musculus [20]): 21%; Activity (Rattus norvegicus [21]): 19% |
| Cc1nc2ccccc2c(=O)n1-c1ccc(NC(=O)CN/N=C/c2ccccc2)cc1 | 32 | 51 | 42 | 35 | 29 | 35 | 31.2 (≈ 75.9 µM) | 31.2 (≈ 75.9 µM) | 34 | 62.5 (≈ 152 µM) | 31.2 (≈ 75.9 µM) | 0.7 | 31.2 (≈ 75.9 µM) | 29 | 31 | 28 | 41 | 31.2 (≈ 75.9 µM) | 57 | 50 | MIC (Escherichia coli): 62.5 µg/mL (≈ 152 µM); Activity (Mus musculus [17]): 30%; Activity (Rattus norvegicus [18]): 46%; MIC (Bacillus cereus): 31.2 µg/mL (≈ 75.9 µM); MIC (Klebsiella pneumoniae): 15.6 µg/mL (≈ 38 µM); UI (Rattus norvegicus [19]): 34%; Activity (Mus musculus [20]): 32%; Activity (Rattus norvegicus [21]): 24% |
| Cc1nc2ccccc2c(=O)n1-c1ccc(NC(=O)CN/N=C/c2ccc([N+](=O)[O-])cc2)cc1 | 31 | 40 | 38 | 31 | 25 | 29 | 31.2 (≈ 68.5 µM) | 15.6 (≈ 34.2 µM) | 31 | 15.6 (≈ 34.2 µM) | 7.81 (≈ 17.1 µM) | 0.8 | 15.6 (≈ 34.2 µM) | 26 | 31 | 20 | 36 | 15.6 (≈ 34.2 µM) | 49 | 42 | MIC (Escherichia coli): 31.2 µg/mL (≈ 68.5 µM); Activity (Mus musculus [17]): 26%; Activity (Rattus norvegicus [18]): 36%; MIC (Bacillus cereus): 7.81 µg/mL (≈ 17.1 µM); MIC (Klebsiella pneumoniae): 7.81 µg/mL (≈ 17.1 µM); UI (Rattus norvegicus [19]): 34%; Activity (Mus musculus [20]): 27%; Activity (Rattus norvegicus [21]): 20% |
